The assay has as its target SOS1/KRAS WT (Homo sapiens (Human), UniProt Q07889). In words: SOS1/KRAS WT HTRF binding assay (FRET-based protein-protein interaction). Particulars: inhibition of His6-SOS1 (aa564-1049, 40 nM) binding to GST-KRAS-WT (aa1-188, 40 nM); at least two independent replicates; read-out: SOS1/KRAS WT HTRF Binding assay pIC50 (converted). The method, boiled down: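 Time-resolved FRET at 665 nm, read 4 hr after adding anti-GST-Eu(K) (4 nM) and anti-6His-XL665 (20 nM), tracked SOS1(aa564-1049)–KRAS WT(aa1-188) association. Both proteins were at 40 nM, pre-incubated 60 min at room temperature with compound. Max/min signals came from 0.05% DMSO and 10 μM reference, with four-parameter logistic IC50.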
Chain of SOS1/KRAS WT (Q07889 564-1049): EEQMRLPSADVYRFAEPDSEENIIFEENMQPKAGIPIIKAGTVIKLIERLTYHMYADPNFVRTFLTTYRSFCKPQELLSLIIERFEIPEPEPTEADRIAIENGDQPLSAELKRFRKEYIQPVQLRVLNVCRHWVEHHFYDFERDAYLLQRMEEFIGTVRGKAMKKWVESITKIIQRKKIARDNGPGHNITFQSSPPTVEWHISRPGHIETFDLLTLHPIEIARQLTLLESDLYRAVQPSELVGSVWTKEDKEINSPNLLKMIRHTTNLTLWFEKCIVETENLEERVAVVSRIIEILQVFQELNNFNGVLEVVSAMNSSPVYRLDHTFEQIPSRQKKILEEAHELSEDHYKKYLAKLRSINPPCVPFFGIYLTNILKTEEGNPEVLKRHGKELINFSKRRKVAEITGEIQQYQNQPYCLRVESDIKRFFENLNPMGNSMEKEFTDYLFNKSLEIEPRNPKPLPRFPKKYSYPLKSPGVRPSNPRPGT
With `CCC1(OC)C(=O)N(C)c2cc3c(C)nnc(N[C@H](C)c4cccc(C(F)(F)C(C)(C)O)c4)c3cc21` (stereo partly drawn) [Compound 192, 5-[[(1R)-1-[3-(1,1-difluoro-2-hydroxy-2-methyl-propyl)phenyl]ethyl]amino]-3-ethyl-3-methoxy-1,8-dimethyl-pyrrolo[2,3-g]phthalazin-2-one], the IC50 was 16.2 nM.
For `COC1(C)C(=O)N(C2CC2)c2cc3c(N[C@H](C)c4cccc(C(F)(F)C(C)(C)O)c4C)nnc(C)c3cc21` (stereo partly drawn) [Compound 140, 1-cyclopropyl-3-methoxy-3,5-dimethyl-8-[[(1R)-1-[3-(1,1-difluoro-2-hydroxy-2-methyl-propyl)-2-methyl-phenyl]ethyl]amino]pyrrolo[2,3-g]phthalazin-2-one] the value was 15.5 nM; for `Cc1nnc(N[C@H](C)c2cccc(C(F)(F)F)c2)c2cc3c(cc12)n(C)c(=O)n3C` [Compound 3, 1,3,8-trimethyl-5-[[(1R)-1-[3-(trifluoromethyl)phenyl]ethyl]amino] imidazo[4,5-g]phthalazin-2-one], 20.9 nM; for `Cc1nnc(N[C@H](C)c2cccc(C(F)(F)C(C)(C)O)c2)c2cc3c(cc12)n(C)c(=O)n3C1CC1` [Compound 67, 3-cyclopropyl-1,8-dimethyl-5-[[(1R)-1-[3-(1,1-difluoro-2-hydroxy-2-methyl-propyl)phenyl]ethyl]amino]imidazo [4,5-g]phthalazin-2-one], 7.41 nM.
For `Cc1c(-c2cncnc2)cccc1[C@@H](C)Nc1nnc(C)c2cc3c(cc12)n(C)c(=O)n3C` [Compound 153, 1,3,8-trimethyl-5-[[(1R)-1-(2-methyl-3-pyrimidin-5-yl-phenyl)ethyl]amino]imidazo[4,5-g]phthalazin-2-one] the value was 107 nM.
As for `Cc1nnc(N[C@H](C)c2cccc(C(F)(F)C(C)(C)O)c2F)c2cc3c(cc12)C(C)(C)C(=O)N3C1CC1` [Compound 59, 1-cyclopropyl-3,3,5-trimethyl-8-[[(1R)-1-[3-(1,1-difluoro-2-hydroxy-2-methyl-propyl)-2-fluoro-phenyl]ethyl]amino]pyrrolo[2,3-g]phthalazin-2-one], the IC50 is 7.94 nM.
For `CCOC1(C)C(=O)N(C)c2cc3c(C)nnc(N[C@H](C)c4cccc(C(F)(F)CO)c4)c3cc21` (stereo partly drawn) [Compound 195, 3-ethoxy-1,3,8-trimethyl-5-[[(1R)-1-[3-(1,1-difluoro-2-hydroxy-ethyl)phenyl]ethyl]amino]pyrrolo [3,2-g]phthalazin-2-one] the value was 20.9 nM.
Then `Cc1nnc(N[C@H](C)c2cccc(C(F)(F)C(C)(C)O)c2)c2cc3c(cc12)N(C)C(=O)C31CCOCC1` [Compound 125, 1,8-dimethyl-5-[[(1R)-1-[3-(1,1-difluoro-2-hydroxy-2-methyl-propyl)phenyl]ethyl]amino]spiro [pyrrolo[3,2-g]phthalazine-3,4′-tetrahydropyran]-2-one], with 6.61 nM.
For `Cc1nnc(N[C@H](C)c2cccc(C(F)(F)CO)c2F)c2cc3c(cc12)C1(CCCC1)C(=O)N3C` [Compound 189, 1′,5′-dimethyl-8′-[[(1R)-1-[3-(1,1-difluoro-2-hydroxy-ethyl)-2-fluoro-phenyl]ethyl]amino]spiro[cyclopentane-1,3′-pyrrolo[2,3-g]phthalazine]-2′-one] the value was 6.76 nM; for `COCC1(C)C(=O)N(C2CC2)c2cc3c(N[C@H](C)c4cccc(C(F)(F)C(C)(C)O)c4C)nnc(C)c3cc21` (stereo partly drawn) [Compound 137, 1-cyclopropyl-8-[[(1R)-1-[3-(1,1-difluoro-2-hydroxy-2-methyl-propyl)-2-methyl-phenyl]ethyl]amino]-3-(methoxymethyl)-3,5-dimethyl-pyrrolo[3,2-g]phthalazin-2-one], 15.8 nM; for `Cc1nnc(N[C@H](C)c2cccc(C(F)(F)F)c2)c2cc3c(cc12)n(C)c(=O)n3C(C)C` [Compound 12, 3-isopropyl-1,8-dimethyl-5-[[(1R)-1-[3-(trifluoromethyl)phenyl]ethyl]amino]imidazo[4,5-g]phthalazin-2-one], 8.13 nM.
For `Cc1nnc(N[C@H](C)c2cccc(C(F)(F)C(C)(C)O)c2)c2cc3c(cc12)n(C)c(=O)n3C(C)(C)C` [Compound 103, 3-tert-butyl-1,8-dimethyl-5-[[(1R)-1-[3-(1,1-difluoro-2-hydroxy-2-methyl-propyl)phenyl]ethyl]amino]imidazo [4,5-g]phthalazin-2-one], the IC50 was 7.94 nM.
For the molecule `Cc1nnc(N[C@H](C)c2cccc(C(F)(F)C(C)(C)O)c2)c2cc3c(cc12)C1(CCOCC1)C(=O)N3C1CC1` [Compound 120, 1-cyclopropyl-5-methyl-8-[[(1R)-1-[3-(1,1-difluoro-2-hydroxy-2-methyl-propyl)phenyl]ethyl]amino]spiro [pyrrolo[2,3-g]phthalazine-3,4′-tetrahydropyran]-2-one], the IC50 is 10.5 nM.
Then `Cc1c([C@@H](C)Nc2nnc(C)c3cc4c(cc23)N(C2CC2)C(=O)C4(C)C)cccc1C(F)(F)CO` [Compound 66, 1-cyclopropyl-3,3,5-trimethyl-8-[[(1R)-1-[3-(1,1-difluoro-2-hydroxy-ethyl)-2-methyl-phenyl]ethyl]amino]pyrrolo[2,3-g]phthalazin-2-one], with 8.51 nM; and `Cc1c([C@@H](C)Nc2nnc(C)c3cc4c(cc23)N(C2CC2)C(=O)C4(C)C)cccc1C(F)(F)C(C)(C)O` [Compound 127, 1-cyclopropyl-3,3,5-trimethyl-8-[[(1R)-1-[3-(1,1-difluoro-2-hydroxy-2-methyl-propyl)-2-methyl-phenyl]ethyl]amino]pyrrolo[2,3-g]phthalazin-2-one], with 12.9 nM; and `Cc1nnc(N[C@H](C)c2cccc(C(F)(F)F)n2)c2cc3c(cc12)n(C)c(=O)n3C` [Compound 74, 1,3,8-trimethyl-5-[[(1R)-1-[6-(trifluoromethyl)-2-pyridyl]ethyl]amino]imidazo[4,5-g]phthalazin-2-one], with 912 nM.
For `Cc1nnc(N[C@H](C)c2cccc(C(F)(F)C(C)(C)O)c2F)c2cc3c(cc12)C(C)(C)C(=O)N3C(C)C` [Compound 111, 1-isopropyl-3,3,5-trimethyl-8-[[(1R)-1-[3-(1,1-difluoro-2-hydroxy-2-methyl-propyl)-2-fluoro-phenyl]ethyl]amino]pyrrolo[2,3-g]phthalazin-2-one] the value was 7.41 nM.
For `Cc1nnc(N[C@H](C)c2cccc(C(F)(F)CO)c2F)c2cc3c(cc12)n(C)c(=O)n3C1CCC1` [Compound 21, 3-cyclobutyl-1,8-dimethyl-5-[[(1R)-1-[3-(1,1-difluoro-2-hydroxy-ethyl)-2-fluoro-phenyl]ethyl]amino]imidazo[4,5-g]phthalazin-2-one] the value was 9.77 nM.
Take `Cc1c([C@@H](C)Nc2nnc(C)c3cc4c(cc23)n(C(C)(C)C)c(=O)n4C)cccc1C(F)(F)CO` [Compound 100, 3-tert-butyl-1,8-dimethyl-5-[[(1R)-1-[3-(1,1-difluoro-2-hydroxy-ethyl)-2-methyl-phenyl]ethyl]amino]imidazo[4,5-g]phthalazin-2-one]: the IC50 is 10 nM.
Then `COC1(C)C(=O)N(C)c2cc3c(N[C@H](C)c4cccc(C(F)(F)C(C)(C)O)c4)nnc(C)c3cc21` (stereo partly drawn) [Compound 90, 3-methoxy-1,3,5-trimethyl-8-[[(1R)-1-[3-(1,1-difluoro-2-hydroxy-2-methyl-propyl)phenyl]ethyl]amino]pyrrolo [2,3-g]phthalazin-2-one], with 10.7 nM; and `COC1(C)C(=O)N(C)c2cc3c(C)nnc(N[C@H](C)c4cccc(C(F)(F)C(C)(C)O)c4)c3cc21` (stereo partly drawn) [Compound 180, 3-methoxy-1,3,8-trimethyl-5-[[(1R)-1-[3-(1,1-difluoro-2-hydroxy-2-methyl-propyl)phenyl]ethyl]amino]pyrrolo [3,2-g]phthalazin-2-one], with 12 nM; and `Cc1c([C@@H](C)Nc2nnc(C)c3cc4c(cc23)N(C)C(=O)C42CCCC2)cccc1C(F)(F)CO` [Compound 193, 1′,5′-dimethyl-8′-[[(1R)-1-[3-(1,1-difluoro-2-hydroxy-ethyl)-2-methyl-phenyl]ethyl]amino]spiro[cyclopentane-1,3′-pyrrolo[2,3-g]phthalazine]-2′-one], with 8.71 nM.
For `Cc1nnc(N[C@H](C)c2cccc(C(F)(F)C(C)(C)O)c2)c2cc3c(cc12)C(C)(C)C(=O)N3C(C)C` [Compound 81, 1-isopropyl-3,3,5-trimethyl-8-[[(1R)-1-[3-(1,1-difluoro-2-hydroxy-2-methyl-propyl)phenyl]ethyl]amino]pyrrol o[2,3-g]phthalazin-2-one] the value was 8.51 nM.
In the case of `Cc1nnc(N[C@H](C)c2cccc(C(F)(F)C(C)(C)O)c2F)c2cc3c(cc12)C1(CCOCC1)C(=O)N3C1CC1` [Compound 121, 1-cyclopropyl-5-methyl-8-[[(1R)-1-[3-(1,1-difluoro-2-hydroxy-2-methyl-propyl)-2-fluoro-phenyl]ethyl]amino]spiro[pyrrolo [2,3-g]phthalazine-3,4′-tetrahydropyran]-2-one], the IC50 is 6.31 nM.
On to `COC1(C)C(=O)N(C)c2cc3c(C)nnc(N[C@H](C)c4cccc(C(F)(F)C(C)(C)O)c4C)c3cc21` (stereo partly drawn) [Compound 174, 3-methoxy-1,3,8-trimethyl-5-[[(1R)-1-[3-(1,1-difluoro-2-hydroxy-2-methyl-propyl)-2-methyl-phenyl]ethyl]amino]pyrrolo[3,2-g]phthalazin-2-one], for which the IC50 was 15.8 nM.
For `CCn1c(=O)n(C)c2cc3c(C)nnc(N[C@H](C)c4cccc(C(F)F)c4F)c3cc21` [Compound 20, 3-ethyl-1,8-dimethyl-5-[[(1R)-1-[3-(difluoromethyl)-2-fluoro-phenyl]ethyl]amino]imidazo[4,5-g]phthalazin-2-one], the IC50 is 10 nM.
